Test results: patent publication US20110251188A1, “ACENAPHTHO HETEROCYCLE COMPOUNDS, CYCLODEXTRIN INCLUSION COMPOUNDS AND COMPLEXES, AND USES IN THE MANUFACTURES OF BH3 PROTEIN ANALOGUE, BCL-2 FAMILY PROTEIN INHIBITORS THEREOF” (DALIAN UNIVERSITY OF TECHNOLOGY, priority 2008, published 2011)
Converted amounts (≈) assume the structure as drawn.

Experiments:
MCF-7 cells = assay: cytotoxicity depending on BAX/BAK, MTT, MCF-7 cells with or without BAX/BAK interfering plasmid; assay type: cell-based
Experimental: 3 ng of BAX/BAK interfering plasmid was transfected into MCF-7 cells by using calcium phosphate coprecipitation method, 24 hours later, the cells were collected. The expressions after the BAX and BAK proteins interfered with RNA was detected by Western, and the cell groups without plasmid transfection were treated similarly and were set as the control group. The transfected cells were inoculated in a 96-well plate (1×10^5 cells/well), the control experiment of the cell group without plasmid transfection was carried out in parallel. The compound 3-thiomorpholinyl-8-oxo-8 H-acenaphtho[1,2-b]pyrrole-9-carbonitrile to be detected was added thereinto according to the concentration gradient designed before the experiment. 48 hours later, the cellular vitality was detected by MTT. The experimental results were shown in FIG. 6, Gossypol as nonspecific BH3 analogue was treated in parallel.

Bax protein = assay: co-localization between Bax protein and chondriosome, Bax-YFP transfected MCF-7 cells; assay type: cell-based; conditions: for Time for which the compound drove the BAX to shift towards the chondriosome: goes with the concentration of E14; for Concentration at which the compound drove the BAX to shift towards the chondriosome: goes with the time of E15
Experimental: 5 ng of Bax-YFP plasmid was transfected into MCF-7 cells by using calcium phosphate coprecipitation method, 24 hours later, the cells were inoculated in a 6-well plate (0.2×10^6 cells/well), and 10 μM of the compound 3-thiomorpholinyl-8-oxo-8 H-acenaphtho[1,2-b]pyrrole-9-carbonitrile to be detected was added thereinto. 6 hours later, the cells were washed with PBS and hatched away from light with 50 nM Mito Tracker Red CMXRos (chondriosome specific probes; red) for 10 minutes. Then the cells were washed with PBS for three times, and the fluorescent image was scanned with Radiance2000 laser confocal microscopy (Bio-Rad, USA). Meanwhile, dual channel scanning was carried out, one channel was used to scan the green fluorescence of Bax-YFP, and the other channel was used to scan the red fluorescence of the CMXRos probe for indicating the chondriosome. […] When the Bax protein was localized on the chondriosome, the green and red fluorescence was superimposed into orange, as shown in FIG. 4.
Other 8 compounds were detected by the same experimental method as described above. […] Wherein the concentration and time meant that the detected compound simulated the BH3-only protein and driven the BAX to shift towards the chondriosome at the concentration for the time period.

[1] = phase solubility experiment (solubility in water before and after cyclodextrin inclusion or complexation); conditions: thermodynamic from solid, Solubility of compounds
[2] = system: hepatoma carcinoma cells H22; assay: in vivo tumor model, subcutaneous H22 tumor in Kunming mice; conditions: H22 mouse model of Example 25; dose and route not stated at the place
Experimental: The Kunming mice (in China) were randomly divided into groups, with 10 mice in each group. The cultivated hepatoma carcinoma cells H22 were inoculated subcutaneously in the oxter of the mice with 200 μL/mouse. After bearing the cancer cells for five days, the subcutaneous tumor was formed. Then the compound 3-thiomorpholinyl-8-oxo-8H-acenaphtho[1,2-b]pyrrole-9-carbonitrile and γ-cyclodextrin inclusion compound thereof were given by peritoneal injection, and the compound to be detected included by γ-cyclodextrin was given by oral administration. The detection conditions comprise:
Blank control group: the mice were not treated in any manner after the bearing cancer;
Control group (1): the mice were given a peritoneal injection of DMSO solution every other day after the bearing cancer, 10 days in total;
Control group (2): the mice were given a peritoneal injection of cyclodextrin solution every other day after the bearing cancer, 10 days in total;
Experimental group (1): the mice were given a peritoneal injection of DMSO solution equivalent to 0.03 mg/kg BW compound every other day after the bearing cancer, 10 days in total;
Experimental group (2): the mice were given a peritoneal injection of DMSO solution equivalent to 0.3 mg/kg BW compound every other day after the bearing cancer, 10 days in total;
Experimental group (3): the mice were given a peritoneal injection of inclusion compound water solution equivalent to 0.3 mg/kg BW compound every other day after the bearing cancer, 10 days in total;
Experimental group (4): the mice were given an intragastric administration of inclusion compounds water solution equivalent to 0.3 mg/kg BW compound every other day after the bearing cancer, 10 days in total;
During the experimental period, the length-diameter (a) and short diameter (b), which was perpendicular to the length-diameter, of the tumor were detected twice every week. The gross tumor volume was determined according to the formula: ½ab^2. The survival time of the animal was observed. The tumor inhibition rate was calculated by the tumor volume on the fortieth day.

GST-Bcl-2 protein = molecular target: T1, GST-Bcl-2 protein (Homo sapiens, UniProt P10415); assay: fluorescence polarization assay, competitive binding against FAM-Bid peptide; conditions: Table 3; FAM-Bid competition; table does not say whether Bcl-2 or Mcl-1; read-out: Binding constant
T1 construct: fused on or other part: GST tag on Bcl-2
Experimental: A Bid BH3 peptide (amino acids: 79-99: […]) having 21 amino acids was synthesized and marked with 6-carboxyfluorescein N-succinimidyl ester (FAM) as fluorescent tag (FAM-Bid) at the N-terminal. The reaction system used in the competitive binding experiment was GST-Bcl-2 protein (40 nM) or Mcl-1 protein, which was dissolved in the reaction buffer (100 mM K3PO4, pH 7.5; 100 μg/ml bovine γ albumin; 0.02% sodium azide) together with FAM-Bid polypeptide (5 nM). In a 96-well plate, 100 μL of the reaction system was added into each well. Then 1 μL different concentration of 3-thiomorpholinyl-8-oxo-8H-acenaphtho[1,2-b]pyrrole-9-carbonitrile mother solution to be detected dissolved in DMSO was added thereinto until the final concentration met the experimental design requirements. Meanwhile, two control groups were established, one with the reaction system only contains Bcl-2 or Mcl-1 and FAM-Bid (equivalent to 0% inhibition rate), the other with the reaction system only containing FAM-Bid peptide. After 4 hours of incubation, the 96-well plate was detected by enzyme-labelled meter. The fluorescent polarization value (mP) was tested at […]. Ki value was deduced according to calculation formula. The competitive binding constant between the compound and Bcl-2 was 310 nM.

[3] = molecular target: T2, interaction between Bcl-2 and Bax (Homo sapiens, UniProt P10415); assay: intracellular fluorescence polarization energy transfer (FRET), Hela cells transfected with Bcl-2-CFP and Bax-YFP; assay type: cell-based; conditions: for Time for which the compound interfered with the interaction between Bcl-2 and Bax: goes with the concentration of E11; for Concentration at which the compound interfered with the interaction between Bcl-2 and Bax: goes with the time of E12
T2 construct: expressed in transfected cells; host or cells: Hela cells
Experimental: 24 hours later (please refer to FIG. 2), the cells were washed with PBS for three times. The fluorescence value was detected by GENIOS fluorescence enzyme-labelled meter (TECAN, Swiss). In time-dependent experiment, the transfected cells were inoculated in a 6-well plate, after that, 40 μM of the compound was added thereinto. 3, 6 and 24 hours later (FIG. 3), the fluorescence intensities were detected by plate reader. As for the cell group in which only Bcl-2-CFP plasmid was transfected, the values at 475 nm emission wave length and 433 nm excitation wave length were recorded. As for the cell group in which only Bax-YFP plasmid was transfected, the values at 527 nm emission wave length and 505 nm excitation wave length were recorded. […] The ratio of fluorescence intensity at 527 nm and 475 nm emission wave lengths was FRET. The FRET for the control group in which the plasmid was solely transfected was set as 1.0. […] The cellular vitality was detected by MTT method.
Wherein the concentration and time meant that the detected compound interfered with the interaction between Bcl-2 and Bax at the concentration for the time period.

Bcl-2 = assay: Western blotting, inhibition (downregulation) of Bcl-2 in tumor cells, Example 23; assay type: cell-based
Experimental: (§1) The interest protein was detected by the corresponding antibody. The expression of the interest protein in the cells was detected by horseradish peroxidase-labeled secondary antibodies in combination with ECL coloration method. […] The concentration of the protein bands in the Western images were carried out semiquantitative analysis and normalization treatment with KODAK Gel Logic 1500 imaging system software.

Mcl-1 = assay: Western blotting, inhibition (downregulation) of Mcl-1 in tumor cells, Example 23; assay type: cell-based
Experimental: as §1

[4] = Table 1, compound per se, before inclusion

T1 sequence (P10415 whole entry, the tested form may be a part): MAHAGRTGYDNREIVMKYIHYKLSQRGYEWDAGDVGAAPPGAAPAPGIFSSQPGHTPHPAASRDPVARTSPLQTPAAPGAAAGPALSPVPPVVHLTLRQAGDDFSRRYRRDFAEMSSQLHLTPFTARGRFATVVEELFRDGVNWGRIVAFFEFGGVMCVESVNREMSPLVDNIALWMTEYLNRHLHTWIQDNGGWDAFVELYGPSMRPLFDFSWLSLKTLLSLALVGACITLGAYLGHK
T2 sequence (P10415 whole entry): as the sequence (P10415 whole entry, the tested form may be a part) above

O=C(O)C1=C2C(=NC1=O)c1cccc3c(Oc4ccccc4)ccc2c13 [3-phenoxy-8-oxo-8H-acenaphtho[1,2-b]pyrrole-9-carboxylic acid]
dependence of cytotoxicity on BAX/BAK (MCF-7 cells): absolute dependence on BAX/BAK | Time for which the compound drove the BAX to shift towards the chondriosome (Bax protein): 6 h | Concentration at which the compound drove the BAX to shift towards the chondriosome (Bax protein): 10.0 µM

CC(C)c1ccc(Oc2ccc3c4c(cccc24)C2=C(C#N)C(=O)N=C23)cc1 [4-(4-isopropylphenoxy)-8-oxo-8H-acenaphtho[1,2-b]pyrrole-9-carbonitrile]
solubility [1, 4]: 0.12 µM (≈ 0.0437 µg/mL)

N#CC1=C2C(=NC1=O)c1cccc3c(Sc4ccccc4)ccc2c13 [3-phenylthio-8-oxo-8H-acenaphtho[1,2-b]pyrrole-9-carbonitrile]
solubility [1, 4]: 0.22 µM (≈ 0.0744 µg/mL)

O=C(O)C1=C2C(=NC1=O)c1cccc3c(Sc4ccc(Br)cc4)ccc2c13 [3-(4-bromophenylthio)-8-oxo-8H-acenaphtho[1,2-b]pyrrole-9-carboxylic acid]
tumor inhibition rate [2]: 45% | solubility ([1]; Table 2, compound per se, before complexation): 0.55 µM (≈ 0.24 µg/mL)

N#CC1=C2C(=NC1=O)c1ccc(Oc3ccccc3)c3cccc2c13 [4-phenoxy-8-oxo-8H-acenaphtho[1,2-b]pyrrole-9-carbonitrile]
Ki (GST-Bcl-2 protein): 890 nM | Time for which the compound drove the BAX to shift towards the chondriosome (Bax protein): 6 h | Concentration at which the compound drove the BAX to shift towards the chondriosome (Bax protein): 10.0 µM | Time for which the compound interfered with the interaction between Bcl-2 and Bax [3]: 6 h | Concentration at which the compound interfered with the interaction between Bcl-2 and Bax [3]: 10.0 µM

Cc1ccc(Oc2ccc3c4c(cccc24)C2=NC(=O)C(C#N)=C23)cc1 [3-(p-methylphenoxy)-8-oxo-8H-acenaphtho[1,2-b]pyrrole-9-carbonitrile]
solubility [1, 4]: 0.25 µM (≈ 0.0841 µg/mL)

3-phenoxy-8-oxo-8H-acenaphtho[1,2-b]pyrrole-9-carboxylate
Ki (GST-Bcl-2 protein): 790 nM | Time for which the compound interfered with the interaction between Bcl-2 and Bax [3]: 6 h | Concentration at which the compound interfered with the interaction between Bcl-2 and Bax [3]: 10.0 µM

N#CC1=C2C(=NC1=O)c1cccc3c(C(=O)c4cccc(F)c4)ccc2c13 [3-(3-fluorophenylformyl)-8-oxo-8H-acenaphtho[1,2-b]pyrrole-9-carbonitrile]
dependence of cytotoxicity on BAX/BAK (MCF-7 cells): absolute dependence on BAX/BAK | Time for which the compound interfered with the interaction between Bcl-2 and Bax [3]: 6 h | Concentration at which the compound interfered with the interaction between Bcl-2 and Bax [3]: 10.0 µM

CC(C)(C)NC(=O)C1=C2C(=NC1=O)c1cccc3c(Oc4ccccc4)ccc2c13 [3-phenoxy-8-oxo-8H-acenaphtho[1,2-b]pyrrole-9-N-tert-butylamide]
downregulation of Bcl-2 protein, semiquantitative analysis (band concentration, control = 1) (Bcl-2; 2 hours): 0.80 | downregulation of Bcl-2 protein, semiquantitative analysis (band concentration, control = 1) (Bcl-2; 6 hours): 0.56 | inhibition against Bcl-2 (Bcl-2; Western blotting, tumor cells): had the inhibition against Bcl-2 and Mcl-1 proteins | downregulation of Mcl-1 protein, semiquantitative analysis (band concentration, control = 1) (Mcl-1; 6 hours): 0.99 | downregulation of Mcl-1 protein, semiquantitative analysis (band concentration, control = 1) (Mcl-1; 12 hours): 0.99 | downregulation of Mcl-1 protein, semiquantitative analysis (band concentration, control = 1) (Mcl-1; 18 hours): 0.78 | downregulation of Mcl-1 protein, semiquantitative analysis (band concentration, control = 1) (Mcl-1; 24 hours): 0.51 | inhibition against Mcl-1 (Mcl-1; Western blotting, tumor cells): had the inhibition against Bcl-2 and Mcl-1 proteins

N#CC1=C2C(=NC1=O)c1cccc3c(Sc4ccc(N)cc4)ccc2c13 [3-(4-aminophenylthio)-8-oxo-8H-acenaphtho[1,2-b]pyrrole-9-carbonitrile]
solubility [1, 4]: 0.25 µM (≈ 0.0884 µg/mL)

NC(=O)C1=C2C(=NC1=O)c1cccc3c(N4CCSCC4)ccc2c13 [3-thiomorpholinyl-8-oxo-8H-acenaphtho[1,2-b]pyrrole-9-carboxamide]
tumor inhibition rate [2]: 45%

N#CC1=C2C(=NC1=O)c1cccc3c(OC4CCOCC4)ccc2c13 [3-(tetrahydro-2H-pyranyl-4-oxo)-8-oxo-8H-acenaphtho[1,2-b]pyrrole-9-carbonitrile]
Ki (GST-Bcl-2 protein): 600 nM

COc1ccc(Oc2ccc3c4c(cccc24)C2=NC(=O)C(C#N)=C23)cc1 [3-(4-methoxyphenoxy)-8-oxo-8H-acenaphtho[1,2-b]pyrrole-9-carbonitrile]
solubility [1, 4]: 0.32 µM (≈ 0.113 µg/mL)
